From ChEMBL document CHEMBL3885861, “Open TG-GATES”

Organism: Rattus norvegicus
Assay: Open TG-GATES - Regimen: Daily Repeat
Format: toxicity, organism-based, Sprague-Dawley
Design: regimen Daily Repeat, gender Male, age 6 weeks
Settings: in vivo, po, 20 mg/kg, […], route gavage, dose level Low; for KIDNEY_L / KIDNEY_R / KIDNEY_TOTAL: tissue Kidney; for LIVER: tissue Liver; for A/G / ALP / ALT / AST / BUN / CRE / Ca / Cl / DBIL / GLC / IP / K / LDH / Na / PL / RALB / TBIL / TC / TG / TP / gamma-GTP: tissue Plasma

## CC(CN1c2ccccc2Sc2ccccc21)N(C)C (stereo unspecified) [PROMETHAZINE]
Tissue Blood, time 28 day
  Lym: 79.2%
  MCH: 19.1 pg
  MCHC: 34.6%
  MCV: 55.2 fL
  Mono: 1.6%
  Neu: 17.4%
  PT: 16.3 s
  Plat: 96.2 x10_4/uL
  RBC: 787.8 x10_4/ul
  Ret: 2.3%
  WBC: 118.8 x10_2/uL
Time 7 day
  KIDNEY_L: 1.1 g
  KIDNEY_R: 1.1 g
  KIDNEY_TOTAL: 2.2 g
  LIVER: 12.4 g
  A/G: 1.3
  ALP: 1595.8 IU/L
  ALT: 46 IU/L
  AST: 79.8 IU/L
  BUN: 18.2 mg/dL
  CRE: 0.2 mg/dL
  Ca: 10.5 mg/dL
  Cl: 106.4 meq/L
  DBIL: 0 mg/dL
  GLC: 185.2 mg/dL
  IP: 6.7 mg/dL
  K: 4.3 meq/L
  LDH: 169.2 IU/L
  Na: 141.6 meq/L
  PL: 133 mg/dL
  RALB: 3.1 g/dL
  TBIL: 0.004 mg/dL
  TC: 66.2 mg/dL
  TG: 113.4 mg/dL
  TP: 5.5 g/dL
  gamma-GTP: 1.8 IU/L
Time 14 day
  KIDNEY_L: 1.1 g
  KIDNEY_R: 1.1 g
  KIDNEY_TOTAL: 2.3 g
  LIVER: 13.1 g
  A/G: 1.2
  ALP: 1261.8 IU/L
  ALT: 45.8 IU/L
  AST: 71.4 IU/L
  BUN: 18.6 mg/dL
  CRE: 0.2 mg/dL
  Ca: 10.6 mg/dL
  Cl: 106 meq/L
  DBIL: 0 mg/dL
  GLC: 182.6 mg/dL
  IP: 6.2 mg/dL
  K: 4.1 meq/L
  LDH: 128.4 IU/L
  Na: 142.6 meq/L
  PL: 146.6 mg/dL
  RALB: 3.2 g/dL
  TBIL: 0.004 mg/dL
  TC: 71.6 mg/dL
  TG: 116.6 mg/dL
  TP: 5.8 g/dL
  gamma-GTP: 2.6 IU/L
Time 28 day
  KIDNEY_L: 1.4 g
  KIDNEY_R: 1.4 g
  KIDNEY_TOTAL: 2.7 g
  LIVER: 15.9 g
  A/G: 1.1
  ALP: 1046.2 IU/L
  ALT: 48.6 IU/L
  AST: 71.6 IU/L
  BUN: 19.8 mg/dL
  CRE: 0.2 mg/dL
  Ca: 10.4 mg/dL
  Cl: 106.4 meq/L
  DBIL: 0 mg/dL
  GLC: 184.6 mg/dL
  IP: 5.9 mg/dL
  K: 4 meq/L
  LDH: 136 IU/L
  Na: 143.2 meq/L
  PL: 137.4 mg/dL
  RALB: 3.1 g/dL
  TBIL: 0.006 mg/dL
  TC: 65.4 mg/dL
  TG: 139.8 mg/dL
  TP: 6 g/dL
  gamma-GTP: 2 IU/L
